Experimental data as given in patent US20250378918A1, “Phenotype-Based Chemical Screens” (Nemametrix, priority 2015, published 2025).

Key:
[1] = system: zebrafish larvae; test: phenoBlast query of behavioral profile database with haloperidol profile; format: in vivo; conditions: screened at 10 μM; cutoff = DMSO control well most similar to haloperidol query; FIGS. 2A-2C
Protocol: To identify compounds with haloperidol-like behavioral profiles, the behaviors of zebrafish larvae in 29,760 compound-treated wells (including 4,300 known bioactive compounds, 20,000 uncharacterized novel compounds and more than 5,000 DMSO controls) were systematically quantified. Behavioral profiles from each well were compiled into a database. Then, the average profile of three haloperidol (5 μM)-treated wells was used to query the compiled database for additional compounds that cause haloperidol-like phenotypes. […] Four of the known hit compounds were antipsychotic drugs (including three butyrophenones and one tricyclic). A fifth compound, DO 897/99 has been under investigation for treatment of schizophrenia and a sixth compound, lidoflazine, is structurally related to the known antipsychotic amperozide and other antipsychotics in the diphenylbutylpiperidine class (e.g., clopimozide, fluspirilene and pimozide) (FIG. 2C).
The Actiprobe library (TimTec Corporation) contains 10,000 compounds dissolved in DMSO at a stock concentration of 1 mg/ml (˜3 mM). The Chembridge library (Chembridge Corporation) contains 10,000 compounds dissolved in DMSO at a stock concentration of 1 mM. The Spectrum Collection (MicroSource Discovery) contains 2,320 compounds dissolved in DMSO at a concentration of 10 mM. The Prestwick library (Prestwick Chemical) contains 1,280 approved drugs dissolved in DMSO at a stock concentration of 10 mM. […]
Digital video were captured at 25 frames per second using an AVT Pike digital camera. […] To analyze digital video recordings, a motion index was calculated by frame differencing. […]
For each well, the raw motion index from each assay was concatenated into a 10,500-point motion index time series. […] The haloperidol query was calculated by averaging the time series from three replicate haloperidol-treated wells. To calculate the phenoBLAST distance metric, L1 distances were calculated by: phenoBLAST Distance=sum (abs(query-well)), where ‘query’ and ‘well’ indicate their associated time series.

[2] = system: larval zebrafish; test: battery of ten zebrafish behavioral assays (motion index); format: in vivo; conditions: for haloperidol-like behavioral phenotype: antipsychotic drugs, FIG. 1B
Protocol: Haloperidol, a butyrophenone, is known to bind at least 20 molecular targets found in the human brain. To determine how haloperidol affects zebrafish behavior, a battery of ten behavioral assays was developed to compare behavioral profiles from control (DMSO) and haloperidol-treated animals.
A large number of fertilized eggs (up to 20,000 embryos per day) were collected from group matings of Ekkwill zebrafish. Embryos were raised in hatching jars at 28° C. on a 14/10 hour light/dark cycle until 3 days post fertilization (d.p.f.), then transferred to an incubator under the same conditions until 7 d.p.f. Groups of approximately ten larvae (7 d.p.f.) were distributed into the wells of clear flat bottom square well 96-well plates filled with E3 medium (300 μl). Larvae were then incubated at 25° C. on the bench top for one hour prior to chemical treatment and subsequent experiments. All zebrafish protocols were approved by the Institutional Animal Care and Use Committee at Massachusetts General Hospital or at Teleos Therapeutics, LLC.
The Actiprobe library (TimTec Corporation) contains 10,000 compounds dissolved in DMSO at a stock concentration of 1 mg/ml (˜3 mM). The Chembridge library (Chembridge Corporation) contains 10,000 compounds dissolved in DMSO at a stock concentration of 1 mM. The Spectrum Collection (MicroSource Discovery) contains 2,320 compounds dissolved in DMSO at a concentration of 10 mM. The Prestwick library (Prestwick Chemical) contains 1,280 approved drugs dissolved in DMSO at a stock concentration of 10 mM. The Neurotransmitter library (Biomol International; cat. No. 2810) contains 700 compounds dissolved in DMSO at a stock concentration of 10 mM. All compounds were diluted in E3 buffer and screened at 10 μM final concentration and <1% DMSO. Negative controls were treated with an equal volume of DMSO. Stock solutions were added directly to zebrafish in the wells of a 96-well plate, mixed and allowed to incubate for 1 h at room temperature before behavioral evaluation in the Behavioral Battery of assays. Reordered hit compounds were dissolved in DMSO to a stock concentration of 30 mM and added to wells as described above. Hits were retested at a concentration range of 50, 10, 5, 1, 0.5, 0.1, and 0.05 μM in triplicate; assays for retesting were run at 10-minute and 1-hour incubation time points.
Digital video were captured at 25 frames per second using an AVT Pike digital camera. High intensity LEDs were used to deliver violet (405 nm), blue (450 nm), and red (660 nm) light stimuli. Acoustic stimuli were delivered using push-style solenoids to tap the stage. Stimuli and digital recordings were applied to the entire 96-well plate simultaneously. Instrument control and data acquisition were performed using custom MATLAB scripts. Each assay, including video recording and data processing, took ˜40 s per plate per 30 s assay, enabling us to routinely screen 96 wells against a battery of ten assays in less than ten minutes. To analyze digital video recordings, a motion index was calculated by frame differencing. […] The behavioral battery was comprised of ten assays (Assay 1-10) performed in numerical order. phenoBlast ranking and statistics

Row | Structure (SMILES) | phenoBlast similarity to haloperidol (5 μM) query profile, hit ranking [1] | haloperidol-like behavioral phenotype [2] | other results
1 | COc1ccccc1N1CCN(CCCCNC(=O)c2ccc3ccccc3c2)CC1.Cl.Cl [DO 897/99] | hit compounds |  | 
2 | O=C(CCCN1CCC(O)(c2ccc(Br)cc2)CC1)c1ccc(F)cc1 [bromperidol] | top ranked hit compound | cause haloperidol-like behaviors | 
3 | O=C(CCCN1CC=C(n2c(=O)[nH]c3ccccc32)CC1)c1ccc(F)cc1 [droperidol] |  | cause haloperidol-like behaviors | 
4 | O=C(CCCN1CCC(O)(c2ccc(Cl)cc2)CC1)c1ccc(F)cc1 [haloperidol] |  |  | effect on locomotion of larval zebrafish ([2]; high concentrations (50 μM)): locomotor impairment; motion index in behavioral battery ([2]; lower concentrations (5 μM), FIG. 1A): complex pattern of increased activity
5 | Cc1cccc(C)c1NC(=O)CN1CCN(CCCC(c2ccc(F)cc2)c2ccc(F)cc2)CC1 [lidoflazine] | hit compounds |  | 
6 | c1ccc2c(c1)Nc1ccccc1S2 [phenothiazine] |  | cause haloperidol-like behaviors | 
7 | CN1CCN(CCCN2c3ccccc3Sc3ccc(Cl)cc32)CC1 [prochlorperazine] |  | cause haloperidol-like behaviors | 
8 | CSc1ccc2c(c1)N(CCC1CCCCN1C)c1ccccc1S2 (stereo not shown) [thioridazine] |  | cause haloperidol-like behaviors | 
